Reference: PubChem BioAssay (NCI)
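In this assay, cells in 96-well plates receive the compound at five concentrations for 48 hours. Endpoints are linearly interpolated between the surrounding concentrations. The concentration for 50% growth inhibition is given as GI50. At the TGI there is no net growth.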

How the values were obtained:
Assay in all cases: DTP human tumour cell line panel, 48 h
[1] = system: SNB-19 CNS
[2] = system: SF-268 CNS
[3] = system: A498 renal
[4] = system: SNB-75 CNS
[5] = system: HOP-92 NSCLC
[6] = system: HOP-62 NSCLC
[7] = system: HS 578T breast
[8] = system: MDA-MB-231 breast
[9] = system: NCI-H522 lung
[10] = system: CAKI-1 renal
[11] = system: RXF 393 renal
[12] = system: ACHN renal
[13] = system: SK-OV-3 ovarian
[14] = system: HCC-2998 colon
[15] = system: UO-31 renal
[16] = system: SF-295 CNS
[17] = system: OVCAR-8 ovarian
[18] = system: UACC-257 melanoma
[19] = system: 786-0 renal
[20] = system: NCI/ADR-RES ovarian
[21] = system: MCF7 breast
[22] = system: EKVX NSCLC
[23] = system: M14 melanoma
[24] = system: T-47D breast
[25] = system: SW-620 colon
[26] = system: HCT-116 colon
[27] = system: LOX IMVI melanoma
[28] = system: NCI-H23 lung
[29] = system: TK-10 renal
[30] = system: UACC-62 melanoma
[31] = system: U251 CNS
[32] = system: SK-MEL-5 melanoma
[33] = system: PC-3 prostate
[34] = system: MALME-3M melanoma
[35] = system: NCI-H460 lung
[36] = system: COLO 205 colon
[37] = system: BT-549 breast
[38] = system: KM12 colon
[39] = system: HT29 colon
[40] = system: DU-145 prostate
[41] = system: OVCAR-3 ovarian
[42] = system: SK-MEL-28 melanoma
[43] = system: SN12C renal
[44] = system: HCT-15 colon
[45] = system: A549 NSCLC
[46] = system: SF-539 CNS
[47] = system: OVCAR-5 ovarian
[48] = system: OVCAR-4 ovarian
[49] = system: SK-MEL-2 melanoma
[50] = system: MDA-MB-435

## Nc1nc(Cl)c(N=Nc2ccc(Cl)cc2)c(NCC2(CO)CC2)n1
[1]
  GI50: 50000 nM
[2]
  GI50: 40900 nM
[3]
  GI50: 90900 nM
[4]
  GI50: 10300 nM
[5]
  GI50: 1080 nM
  TGI: 38100 nM
[6]
  GI50: 28700 nM
[7]
  GI50: 12600 nM
[8]
  GI50: 11100 nM
[9]
  GI50: 47500 nM
[10]
  GI50: 5060 nM
[11]
  GI50: 33500 nM
[12]
  GI50: 411 nM
[13]
  GI50: 14200 nM

## Cc1cc(N(CCNc2ccnc3cc(Cl)ccc23)Cc2ccco2)nc(Cl)n1
[14]
  GI50: 1720 nM
  TGI: 3300 nM
[15]
  GI50: 1490 nM
  TGI: 2890 nM
[16]
  GI50: 1510 nM
  TGI: 3000 nM
[17]
  GI50: 2060 nM
  TGI: 4420 nM
[18]
  GI50: 1900 nM
  TGI: 3680 nM
[1]
  GI50: 1910 nM
  TGI: 3740 nM
[19]
  GI50: 1570 nM
  TGI: 2910 nM
[2]
  GI50: 2160 nM
  TGI: 6010 nM
[20]
  GI50: 1860 nM
  TGI: 3960 nM
[21]
  GI50: 1650 nM
  TGI: 3320 nM
[22]
  GI50: 1610 nM
  TGI: 3580 nM
[23]
  GI50: 1600 nM
  TGI: 3010 nM
[24]
  GI50: 1520 nM
  TGI: 3580 nM
[25]
  GI50: 1750 nM
  TGI: 3460 nM
[26]
  GI50: 1480 nM
  TGI: 2840 nM
[3]
  GI50: 1870 nM
  TGI: 4210 nM
[27]
  GI50: 1590 nM
  TGI: 3070 nM
[28]
  GI50: 1770 nM
  TGI: 3930 nM
[29]
  GI50: 1810 nM
  TGI: 3210 nM
[30]
  GI50: 1780 nM
  TGI: 3380 nM
[31]
  GI50: 1620 nM
  TGI: 3010 nM
[32]
  GI50: 1720 nM
  TGI: 3130 nM
[33]
  GI50: 1710 nM
  TGI: 3180 nM
[34]
  GI50: 1780 nM
  TGI: 3330 nM
[35]
  GI50: 1910 nM
  TGI: 3600 nM
[36]
  GI50: 1710 nM
  TGI: 3300 nM
[4]
  GI50: 1470 nM
  TGI: 2970 nM
[37]
  GI50: 1690 nM
  TGI: 3140 nM
[38]
  GI50: 1890 nM
  TGI: 3950 nM
[39]
  GI50: 1580 nM
  TGI: 3240 nM
[5]
  GI50: 1470 nM
  TGI: 2940 nM
[6]
  GI50: 1680 nM
  TGI: 3380 nM
[40]
  GI50: 1990 nM
  TGI: 4150 nM
[7]
  GI50: 2430 nM
  TGI: 6280 nM
[8]
  GI50: 1680 nM
  TGI: 3240 nM
[41]
  GI50: 1610 nM
  TGI: 3010 nM
[42]
  GI50: 1740 nM
  TGI: 3380 nM
[9]
  GI50: 1750 nM
  TGI: 3710 nM
[43]
  GI50: 1790 nM
  TGI: 3440 nM
[11]
  GI50: 1270 nM
  TGI: 2680 nM
[44]
  GI50: 1640 nM
  TGI: 3190 nM
[45]
  GI50: 1850 nM
  TGI: 3420 nM
[46]
  GI50: 1820 nM
  TGI: 3320 nM
[47]
  GI50: 1680 nM
  TGI: 3230 nM
[48]
  GI50: 1490 nM
  TGI: 2950 nM
[49]
  GI50: 1900 nM
  TGI: 3830 nM
[12]
  GI50: 1650 nM
  TGI: 3020 nM
[13]
  GI50: 1660 nM
  TGI: 3130 nM
[50]
  GI50: 1720 nM
  TGI: 3370 nM
